Experiments:
[1] = tested on: Human mast cells (CHMC cells); assay: Tryptase release assay (mast cell degranulation induced by anti-IgG FcγR cross-linking); assay type: cell-based; details: IC50 of tryptase release from human mast cells after anti-IgG stimulation, read-out: LD Tryptase
Description: Compounds were assayed for inhibition of mast cell activation induced by FcγR cross-linking by measuring the activity of tryptase released upon degranulation as follows:
Human mast cells were cultured and differentiated from […] progenitor cell as described in U.S. Patent Publication No. 2005-234049, incorporated herein by reference. For example, 65 μl of various concentrations of the compound to be assayed were prepared in MT (137 mM NaCl, 2.7 mM KCl, 1.8 mM CaCl2, 1.0 mM MgCl2, 5.6 mM Glucose, 20 mM Hepes (pH 7.4), 0.1% Bovine Serum Albumin, (Sigma A4503)) containing 2% MeOH and 1% DMSO, or control buffer were added to duplicate 96-well V-bottom plates. Pelleted and resuspended (in warm MT) CHMC cells (65 μl) were added to each 96-well plate, mixed and incubated for 1 hour at 37° C. 25 μl of 6× anti-IgG Rabbit anti-human IgG, Affinity purified (Bethyl Laboratories Cat No. A80-105A3) final concentration 1 μg/ml, was added to the test wells. MT (25 μl) was added to control wells. After a 60-minute incubation at 37° C., cells and cell debris were pelleted by centrifugation at 1000 rpm for 10 min and tryptase and leukotriene C4 levels were measured.
To measure tryptase levels, 25 μl of supernatant from each well was transferred to a fresh 96-well black bottom plate, to which 100 μl of fresh tryptase substrate solution [(Z-Ala-Lys-Arg-AMC2TFA; Enzyme Systems Products, #AMC-246)] 1:2000 in tryptase assay buffer [0.1 M Hepes (pH 7.5), 10% w/v Glycerol, 10 μM Heparin (Sigma H-4898) 0.01% NaN3] was added. After 30 minute incubation at room temperature, the optical density of the plates is measured at 355 nm/460 nm on a spectrophotometric plate reader. Table 2 provides the IC50 values.

Syk kinase = target: T1, Syk kinase (Homo sapiens, UniProt P43405); assay: ELISA-based Syk kinase assay (phosphorylation of HS1 peptide substrate by isolated Syk kinase); assay type: biochemical; details: IC50 of Syk kinase inhibition; 2 μM ATP, 2 μM peptide substrate
T1 construct: purchased Millipore 14-314
Description: Compounds were tested for the ability to inhibit Syk kinase catalyzed phosphorylation of a peptide substrate in an assay with isolated Syk kinase.
An assay was carried out in a Costar white 96 well plate (Fisher Scientific, Cat No. 07-200-591) coated overnight with 0.01 mg/ml Neutravidin (Pierce, 100 μl/well) at 4° C. Neutravidin pre-coated 96 well plates were blocked with 2% BSA in PBST buffer for at least 1 hour before starting the assay at room temperature. Serially diluted compound stock solution containing a subject compound was prepared separately in DMSO solution starting from 300 μM and 2 μl of this diluted compound (3% DMSO final concentration) was added directly to neutravidin coated assay plate containing 55.5 μl/well of kinase reaction buffer composed of 20 mM HEPES, pH 7.4, 5 mM MgCl2, 2 mM MnCl2, 1 mM DTT, 0.01% Tween 20 pre-mixed with ATP and kinase substrate (HS1 peptide). Reaction was initiated by adding of 2.5 μl/well Syk kinase (Millipore, Cat No. 14-314) resulting in a final reaction volume of 60 μl and then the reaction was allowed to continue for 30 minutes at room temperature. Final enzyme reaction conditions were 20 mM HEPES, pH 7.4, 5 mM MgCl2, 2 mM MnCl2, 1 mM DTT, 0.01% Tween 20, 0.25 ng Syk, 2 μM ATP, 2 μM peptide substrate (Biotin-EQEDEPEGDYEEVLE-CONH2, SynPep Corporation). After completing the reaction, assay plate was washed three times with PBST and incubated for 1 hour at room temperature with 100 μl/well of phosphopeptide detection antibody solution prepared by mixing 1-1000 diluted mouse anti-pTyr monoclonal antibody (Cell Signal Technology, Cat No. 9411) and 1-1000 diluted goat HRP-conjugated anti-mouse IgG (Jackson Immunoresearch, Cat. No. 115-035-003). Before developing the plate with supersignal ELISA pico chemiluminescent substrate (Pierce), plate was washed three times again with PBST and were read on a SpectraMax M5 microplate reader (Moleculear Devices).

Compound | IC50 [1] [µM] | IC50 (Syk kinase) [µM]
COc1ccc(Nc2c(-c3ccc(NC(C)=O)cc3)[nH]c3c(C#N)cnn23)cc1OC [Compound 2] | < 10 | 0.51 to 2.99
CC(=O)Nc1ccc(-c2[nH]c3c(C#N)cnn3c2Nc2cccc(C(F)(F)F)c2)cc1 [Compound 3] | 11 to 100 | 0.51 to 2.99
COc1ccc2[nH]cc(-c3[nH]c4c(C#N)cnn4c3Nc3ccc(OC)c(OC)c3)c2c1 [Compound 4] | < 10 | 0.51 to 2.99
COc1ccc(Nc2c(-c3ccc4[nH]ccc4c3)[nH]c3c(C#N)cnn23)cc1OC [Compound 5] | < 10 | 0.51 to 2.99
COc1ccc(Nc2c(-c3ccc4cc[nH]c4c3)[nH]c3c(C#N)cnn23)cc1OC [Compound 6] | < 10 | 0.51 to 2.99
COc1ccc(Nc2c(-c3ccc(Oc4ccccc4)cc3)[nH]c3c(C#N)cnn23)cc1OC [Compound 8] | < 10 | 3 to 25
COC(=O)c1cccc(Nc2c(-c3ccc4c(c3)NC(=O)CO4)[nH]c3c(C#N)cnn23)c1 [Compound 10] | 11 to 100 | 0.51 to 2.99
COc1cccc(Nc2c(-c3cc(OC)c(OC)c(OC)c3)[nH]c3c(C#N)cnn23)c1 [Compound 14] | < 10 | 0.51 to 2.99
COc1cc(-c2[nH]c3c(C#N)cnn3c2Nc2ccc(Br)cc2)cc(OC)c1OC [Compound 23] | < 10 | 0.51 to 2.99
COc1ccc2c(-c3[nH]c4c(C#N)cnn4c3Nc3ccc(OC)c(OC)c3)c[nH]c2c1 [Compound 24] | < 10 | 0.51 to 2.99
COc1cc(-c2[nH]c3c(C#N)cnn3c2Nc2ccc(N3CCOCC3)cc2)cc(OC)c1OC [Compound 25] | < 10 | 0.51 to 2.99
COc1ccc(Nc2c(-c3cc(OC)c(OC)c(OC)c3)[nH]c3c(C#N)cnn23)cc1OC [Compound 28] | < 10 | < 0.5
COc1cc(-c2[nH]c3c(C#N)cnn3c2Nc2cccc(NC(C)=O)c2)cc(OC)c1OC [Compound 30] | < 10 | 0.51 to 2.99
COc1ccc(-c2[nH]c3c(C#N)cnn3c2Nc2cccc(NC(C)=O)c2)cc1OC [Compound 32] | < 10 | 0.51 to 2.99
CSc1ccc(-c2[nH]c3c(C#N)cnn3c2Nc2cccc(NC(C)=O)c2)cc1 [Compound 33] | < 10 | 0.51 to 2.99
COc1ccc(Nc2c(-c3ccc4c(c3)OCCO4)[nH]c3c(C#N)cnn23)cc1OC [Compound 38] | > 5000 | 0.51 to 2.99
N#Cc1cnn2c(Nc3ccc(N4CCOCC4)cc3)c(-c3ccc4c(c3)NC(=O)CO4)[nH]c12 [Compound 43] | 11 to 100 | 3 to 25
COc1cccc(Nc2c(-c3ccc4cc[nH]c4c3)[nH]c3c(C#N)cnn23)c1 [Compound 44] | < 10 | 3 to 25
N#Cc1cnn2c(Nc3ccc(Br)cc3)c(-c3ccc4c(c3)NC(=O)CO4)[nH]c12 [Compound 45] | 101 to 5000 | 0.51 to 2.99
CC(=O)Nc1cccc(Nc2c(-c3ccc4cc[nH]c4c3)[nH]c3c(C#N)cnn23)c1 [Compound 47] | < 10 | 0.51 to 2.99
COc1ccc(Nc2c(-c3ccc(S(C)(=O)=O)cc3)[nH]c3c(C#N)cnn23)cc1OC [Compound 48] | < 10 | 0.51 to 2.99
COc1cc(-c2[nH]c3c(C#N)cnn3c2Nc2ccc3c(c2)OCCO3)cc(OC)c1OC [Compound 49] | < 10 | 0.51 to 2.99
N#Cc1cnn2c(Nc3ccc4c(c3)OCCO4)c(-c3ccc4c(c3)NC(=O)CO4)[nH]c12 [Compound 50] | > 5000 | 0.51 to 2.99
COc1ccc(Nc2c(-c3ccc4c(c3)OCO4)[nH]c3c(C#N)cnn23)cc1OC [Compound 51] | < 10 | 0.51 to 2.99

Compound | IC50 [1] [µM] | IC50 (Syk kinase) [µM]
COc1ccc(-c2[nH]c3c(C#N)cnn3c2Nc2ccc(OC)c(OC)c2)cc1F [Compound 52] | > 5000 | 3 to 25
COc1cc(-c2[nH]c3c(C#N)cnn3c2Nc2ccc(F)c(F)c2)cc(OC)c1OC [Compound 64] | < 10 | 0.51 to 2.99
COc1cc(-c2[nH]c3c(C#N)cnn3c2Nc2ccc(CNC(C)=O)cc2)cc(OC)c1OC [Compound 72] | < 10 | 0.51 to 2.99
COC(=O)COc1ccc(-c2[nH]c3c(C#N)cnn3c2Nc2ccc3c(c2)OCCO3)cc1OC [Compound 85] | < 10 | < 0.5
COc1cc(Nc2c(-c3cc(OC)c(OC)c(OC)c3)[nH]c3c(C#N)cnn23)ccc1F [Compound 87] | < 10 | < 0.5
N#Cc1cnn2c(Nc3ccc(Br)cc3)c(-c3ccc(C(N)=O)cc3)[nH]c12 [Compound 98] | 101 to 5000 | 0.51 to 2.99
COc1ccc(Nc2c(-c3cc(O)c(OC)c(OC)c3)[nH]c3c(C#N)cnn23)cc1OC [Compound 100] | < 10 | < 0.5
COc1ccc(Nc2c(-c3ccc(OCCO)c(OC)c3)[nH]c3c(C#N)cnn23)cc1OC [Compound 101] | < 10 | 0.51 to 2.99
COc1ccc(Nc2c(-c3ccc(C(N)=O)cc3)[nH]c3c(C#N)cnn23)cc1OC [Compound 103] | 11 to 100 | < 0.5
COc1ccc(Nc2c(-c3ccc(N4CCOCC4)cc3)[nH]c3c(C#N)cnn23)cc1OC [Compound 104] | < 10 | 0.51 to 2.99
COc1ccc(Nc2c(-c3cccc(N4CCOCC4)c3)[nH]c3c(C#N)cnn23)cc1OC [Compound 105] | 11 to 100 | 0.51 to 2.99
COc1ccc(Nc2c(-c3ccc(OC)c(OC4CCCC4)c3)[nH]c3c(C#N)cnn23)cc1OC [Compound 106] | < 10 | < 0.5
COc1ccc(Nc2c(-c3ccc(OCCN4CCCC4=O)cc3)[nH]c3c(C#N)cnn23)cc1OC [Compound 107] | < 10 | 0.51 to 2.99
COCCOc1ccc(-c2[nH]c3c(C#N)cnn3c2Nc2ccc(OC)c(OC)c2)cc1OC [Compound 108] | < 10 | < 0.5
COc1cc(Nc2c(-c3ccc4c(c3)NC(=O)CO4)[nH]c3c(C#N)cnn23)ccc1F [Compound 109] | 11 to 100 | 0.51 to 2.99
COc1ccc(Nc2c(-c3cccc(O)c3)[nH]c3c(C#N)cnn23)cc1OC [Compound 112] | < 10 | 0.51 to 2.99
COC(=O)COc1ccc(-c2[nH]c3c(C#N)cnn3c2Nc2ccc(OC)c(OC)c2)cc1 [Compound 113] | < 10 | 0.51 to 2.99
COc1ccc(Nc2c(-c3cccc(NS(C)(=O)=O)c3)[nH]c3c(C#N)cnn23)cc1OC [Compound 114] | < 10 | 0.51 to 2.99
COc1cc(Nc2c(-c3ccc(OCCO)c(OC)c3)[nH]c3c(C#N)cnn23)ccc1F [Compound 116] | < 10 | < 0.5
COc1cc(Nc2c(-c3ccc(C(N)=O)cc3)[nH]c3c(C#N)cnn23)ccc1F [Compound 117] | > 5000 | 0.51 to 2.99
COc1cc(Nc2c(-c3cc(O)c(OC)c(OC)c3)[nH]c3c(C#N)cnn23)ccc1F [Compound 118] | < 10 | < 0.5
COc1cc(Nc2c(-c3ccc(OC)c(OC4CCCC4)c3)[nH]c3c(C#N)cnn23)ccc1F [Compound 119] | < 10 | 0.51 to 2.99
COc1cc(-c2[nH]c3c(C#N)cnn3c2Nc2ccc(F)c(C)c2)cc(OC)c1OC [Compound 120] | < 10 | 0.51 to 2.99
COCCOc1ccc(-c2[nH]c3c(C#N)cnn3c2Nc2ccc(F)c(OC)c2)cc1OC [Compound 122] | < 10 | 0.51 to 2.99

Source: patent US8377945B2, “Small molecule inhibitors of spleen tyrosine kinase (SYK)” (Rigel Pharmaceuticals Inc., priority 2009, dated 2013)
